{
  "source": "paper PMC10700596",
  "about": "(Nature Communications, 2023)",
  "experiment": "in vivo",
  "format": "in vivo, mice",
  "details": "plasma, mice, plasma; for Final plasma concentration, individual sample: IP 10 mg/kg, single animal, D=1",
  "note": "Several values for one entry are separate records, joined by “and”; a condition that tells them apart may be missing. Equal entries are not always repeated. Where two headings read alike, the source gives them in different places.",
  "data": [
    {"smiles": "O=C([O-])C1CCC2(CC1)CC(Nc1ncnc3[nH]c4c(F)cccc4c13)C2.[Na+]", "note": "(centres unmarked) [Compound 77, [Na+].[O-]C(=O)C1CCC2(CC(C2)NC=3N=CN=C4NC=5C(F)=CC=CC5C34)CC1]", "values": [
      {"measurement": "concentration at 15 min", "setting": "male, CD-1, mouse, po, 30 mg/kg, PO 30 mg/kg, 15 min, read-out: Plasma concentration C (mean)", "value": 24200, "unit": "ng/mL"},
      {"measurement": "concentration at 30 min", "setting": "male, CD-1, mouse, po, 30 mg/kg, PO 30 mg/kg, 30 min, single animals, read-out: Plasma concentration, Final (individual mouse)", "value": 23000, "unit": "ng/mL"},
      {"measurement": "concentration at 30 min", "setting": "male, CD-1, mouse, po, 30 mg/kg, PO 30 mg/kg, 30 min, read-out: Plasma concentration C (mean)", "value": 21700, "unit": "ng/mL"},
      {"measurement": "concentration at 60 min", "setting": "male, CD-1, mouse, po, 30 mg/kg, PO 30 mg/kg, 60 min, single animals, read-out: Plasma concentration, Final (individual mouse)", "value": 24400, "unit": "ng/mL"},
      {"measurement": "concentration at 60 min", "setting": "male, CD-1, mouse, po, 30 mg/kg, PO 30 mg/kg, 60 min, read-out: Plasma concentration C (mean)", "value": 19600, "unit": "ng/mL"},
      {"measurement": "concentration at 120 min", "setting": "male, CD-1, mouse, po, 30 mg/kg, PO 30 mg/kg, 120 min, single animals, read-out: Plasma concentration, Final (individual mouse)", "value": 11600, "unit": "ng/mL"},
      {"measurement": "concentration at 120 min", "setting": "male, CD-1, mouse, po, 30 mg/kg, PO 30 mg/kg, 120 min, read-out: Plasma concentration C (mean)", "value": 9140, "unit": "ng/mL"},
      {"measurement": "concentration at 240 min", "setting": "male, CD-1, mouse, po, 30 mg/kg, PO 30 mg/kg, 240 min, single animals, read-out: Plasma concentration, Final (individual mouse)", "value": 5200, "unit": "ng/mL"},
      {"measurement": "concentration at 240 min", "setting": "male, CD-1, mouse, po, 30 mg/kg, PO 30 mg/kg, 240 min, read-out: Plasma concentration C (mean)", "value": 3600, "unit": "ng/mL"},
      {"measurement": "concentration at 360 min", "setting": "male, CD-1, mouse, po, 30 mg/kg, PO 30 mg/kg, 360 min, single animals, read-out: Plasma concentration, Final (individual mouse)", "value": 4400, "unit": "ng/mL"},
      {"measurement": "concentration at 360 min", "setting": "male, CD-1, mouse, po, 30 mg/kg, PO 30 mg/kg, 360 min, read-out: Plasma concentration C (mean)", "value": 4510, "unit": "ng/mL"},
      {"measurement": "concentration at 480 min", "setting": "male, CD-1, mouse, po, 30 mg/kg, PO 30 mg/kg, 480 min, read-out: Plasma concentration C (mean)", "value": 5240, "unit": "ng/mL"},
      {"measurement": "concentration at 1440 min", "setting": "male, CD-1, mouse, po, 30 mg/kg, PO 30 mg/kg, 1440 min, read-out: Plasma concentration C (mean)", "value": 187, "unit": "ng/mL"},
      {"measurement": "AUC", "setting": "male, CD-1, mouse, po, 30 mg/kg p.o., read-out: AUC (converted)", "value": 108, "unit": "µg·h/mL"},
      {"measurement": "Final plasma concentration, individual sample", "setting": "5 min, listed as Z5090949977, 10 mg/kg", "value": "2415 ng/mL and 2458 ng/mL"},
      {"measurement": "Final plasma concentration, individual sample", "setting": "15 min, listed as Z5090949977, 10 mg/kg", "value": "7952 ng/mL and 6935 ng/mL"},
      {"measurement": "Final plasma concentration, individual sample", "setting": "30 min, listed as Z5090949977, 10 mg/kg", "value": "4477 ng/mL and 7535 ng/mL"},
      {"measurement": "Final plasma concentration, individual sample", "setting": "60 min, listed as Z5090949977, 10 mg/kg", "value": "9306 ng/mL and 9568 ng/mL"},
      {"measurement": "Final plasma concentration, individual sample", "setting": "120 min, listed as Z5090949977, 10 mg/kg", "value": "9975 ng/mL and 654 ng/mL and 8498 ng/mL"},
      {"measurement": "Final plasma concentration, individual sample", "setting": "240 min, listed as Z5090949977, 10 mg/kg", "value": "3566 ng/mL and 4977 ng/mL and 2222 ng/mL"},
      {"measurement": "Final plasma concentration, individual sample", "setting": "360 min, listed as Z5090949977, 10 mg/kg", "value": "2567 ng/mL and 1708 ng/mL"},
      {"measurement": "Final plasma concentration, individual sample", "setting": "480 min, listed as Z5090949977, 10 mg/kg", "value": "872 ng/mL and 500 ng/mL"},
      {"measurement": "Final plasma concentration, individual sample", "setting": "1440 min, listed as Z5090949977, 10 mg/kg", "value": "13.6 ng/mL and 18.4 ng/mL"},
      {"measurement": "Plasma concentration, Final (individual mouse)", "setting": "IV 10 mg/kg, 5 min, single animals, listed as Z5090949977, 10 mg/kg", "value": "28260 ng/mL and 26240 ng/mL"},
      {"measurement": "Plasma concentration, Final (individual mouse)", "setting": "IV 10 mg/kg, 15 min, single animals, listed as Z5090949977, 10 mg/kg", "value": "16140 ng/mL and 20380 ng/mL"},
      {"measurement": "Plasma concentration, Final (individual mouse)", "setting": "IV 10 mg/kg, 30 min, single animals, listed as Z5090949977, 10 mg/kg", "value": "14230 ng/mL and 12830 ng/mL"},
      {"measurement": "Plasma concentration, Final (individual mouse)", "setting": "IV 10 mg/kg, 60 min, single animals, listed as Z5090949977, 10 mg/kg", "value": "8422 ng/mL and 12040 ng/mL"},
      {"measurement": "Plasma concentration, Final (individual mouse)", "setting": "IV 10 mg/kg, 120 min, single animals, listed as Z5090949977, 10 mg/kg", "value": "4081 ng/mL and 3418 ng/mL"},
      {"measurement": "Plasma concentration, Final (individual mouse)", "setting": "IV 10 mg/kg, 240 min, single animals, listed as Z5090949977, 10 mg/kg", "value": "2055 ng/mL and 1818 ng/mL"},
      {"measurement": "Plasma concentration, Final (individual mouse)", "setting": "IV 10 mg/kg, 360 min, single animals, listed as Z5090949977, 10 mg/kg", "value": "2041 ng/mL and 1884 ng/mL"},
      {"measurement": "Plasma concentration, Final (individual mouse)", "setting": "IV 10 mg/kg, 480 min, single animals, listed as Z5090949977, 10 mg/kg", "value": "829 ng/mL and 1219 ng/mL and 1675 ng/mL"},
      {"measurement": "Plasma concentration, Final (individual mouse)", "setting": "IV 10 mg/kg, 1440 min, single animals, listed as Z5090949977, 10 mg/kg", "value": "31.5 ng/mL and 13.7 ng/mL and 84.5 ng/mL"},
      {"measurement": "Plasma concentration, Final (individual mouse)", "setting": "PO 30 mg/kg, 5 min, single animals, listed as Z5090949977, 30 mg/kg", "value": "2091 ng/mL and 7833 ng/mL and 3112 ng/mL"},
      {"measurement": "Plasma concentration, Final (individual mouse)", "setting": "PO 30 mg/kg, 15 min, single animals, listed as Z5090949977, 30 mg/kg", "value": "23680 ng/mL and 31270 ng/mL"},
      {"measurement": "Plasma concentration, Final (individual mouse)", "setting": "PO 30 mg/kg, 30 min, single animals, listed as Z5090949977, 30 mg/kg", "value": "18100 ng/mL and 24020 ng/mL"},
      {"measurement": "Plasma concentration, Final (individual mouse)", "setting": "PO 30 mg/kg, 60 min, single animals, listed as Z5090949977, 30 mg/kg", "value": "14280 ng/mL and 20060 ng/mL"},
      {"measurement": "Plasma concentration, Final (individual mouse)", "setting": "PO 30 mg/kg, 120 min, single animals, listed as Z5090949977, 30 mg/kg", "value": "8277 ng/mL and 7588 ng/mL"},
      {"measurement": "Plasma concentration, Final (individual mouse)", "setting": "PO 30 mg/kg, 240 min, single animals, listed as Z5090949977, 30 mg/kg", "value": "2686 ng/mL and 2897 ng/mL"},
      {"measurement": "Plasma concentration, Final (individual mouse)", "setting": "PO 30 mg/kg, 360 min, single animals, listed as Z5090949977, 30 mg/kg", "value": "3917 ng/mL and 5212 ng/mL"},
      {"measurement": "Plasma concentration, Final (individual mouse)", "setting": "PO 30 mg/kg, 480 min, single animals, listed as Z5090949977, 30 mg/kg", "value": "8465 ng/mL and 5117 ng/mL and 2129 ng/mL"},
      {"measurement": "Plasma concentration, Final (individual mouse)", "setting": "PO 30 mg/kg, 1440 min, single animals, listed as Z5090949977, 30 mg/kg", "value": "154 ng/mL and 78.9 ng/mL and 329 ng/mL"}
    ]}
  ]
}
